Entries after “also recorded” stand apart in the source; their conditions may differ. Where a name gives a salt, the structure may show the parent alone. Read-outs that look alike come from different tables or passages of the source.
Key:
[1] = toxicity in uninfected mice; conditions: mouse, in vivo
Method: (§1) Methods: The method employed in this characterization is as follows: Female white Swiss mice, average weight 20-23 grams, were infected intraperitoneally with 3-20 times the number of organisms calculated to be lethal for 50% of the infected control animals (3-20 LD50 doses). At the time of infection and again 6 hours later, therapy was given by the designated route. Controls of the virulence of the culture and the toxicity of the antibiotic for uninfected mice were included in the tests. Seven days after infection the test was considered complete and the amount of the antibiotic (I) that would be required to protect 50% of the infected and treated animals was calculated by the method of Knudsen and Curtis; J. Amer. Stat. Assoc. Vol. 42: page 282 (1947).

[2] = tested on: gram-negative and gram-positive infections; assay: in vivo protection, summary statements; set-up: species or system mice; conditions: for protection against infection, oral: given orally; for in vivo activity / protection spectrum: mouse
Method: as §1
The method employed in these studies is the same as described above with regard to the in vivo characterization of 810A.

[3] = tested on: cephalosporinases and penicillinase; assay: resistance to enzymatic degradation / bacterial inactivation, summary statements
bacteria = assay: bactericidal action and development of resistance
Escherichia coli 236 = assay: bacterial inactivation; conditions: 4 hours; assayed on B. subtilis (MB-964)
Method: (§2) These cultures are: Escherichia coli 236, Proteus morganii 251, Proteus morganii 356 and Proteus mirabilis 241. […] In conducting the assay, individual mixtures of the organisms and one of the antibiotics were sampled after four hours incubation and assayed for residual antibiotic activity. The procedure is the same assay method as described above against Alcaligenes faecalis MB-9 and A. viscosus MB-12.

Proteus mirabilis 241 = assay: bacterial inactivation; conditions: washed bacterial cells, 4 h
Method: as §2

Proteus morganii 251 = assay: bacterial inactivation; conditions: washed bacterial cells, 4 h
Method: as §2

Proteus morganii 356 = assay: bacterial inactivation; conditions: washed bacterial cells, 4 h
Method: as §2

[4] = blood appearance and urinary excretion; assay type: in vivo, mice; conditions: for appearance in blood / excretion: in vivo
[5] = isoelectric point and pH stability; assay type: physicochemical; conditions: for stability: pH 1.5
gram-negative bacteria = assay: in vitro growth inhibition, summary; assay type: cell-based
gram-positive bacteria = assay: in vitro growth inhibition, summary; assay type: cell-based; conditions: S. aureus, Sarcina lutea, B. subtilis
[6] = tested on: Alcaligenes faecalis MB-9; assay: bacterial inactivation by washed bacterial cells; conditions: 4 hour; assayed on B. subtilis (MB-964); start 4 mg/ml
[7] = tested on: Alcaligenes viscosus MB-12; assay: bacterial inactivation by washed bacterial cells; conditions: 4 hour; assayed on B. subtilis (MB-964); start 4 mg/ml
Escherichia coli W-MB-60 [8] = assay: disc zone bioassay of derivatives; assay type: cell-based; conditions: WMB60, 100γ/ml, read-out: disc zone size
Description: (§3) Bioassay: the disc zone sizes in the following table are expressed in mm. for 100γ/ml of antibiotic.
(§4) Bioassay: The disc zone sizes in the following table are expressed in mm. for equal concentrations of antibiotic.

[9] = tested on: Pseudomonas stutzeri MB-1231; assay: disc zone bioassay of derivatives; assay type: cell-based; conditions: Stutzerimonas stutzeri, MB1231, 100γ/ml; read-out: disc zone size
Description: as §3
Bioassay: the disc zone sizes in the following table are expressed in mm. for equal concentrations of antibiotic.
as §4

[10] = tested on: several strains of bacteria; assay: bioactivity, summary; assay type: cell-based
Vibrio percolans MB-1272 = assay: disc-plate bioassay using Vibrio percolans; conditions: Comamonas terrigena, MB1272, read-out: disc zone size, 5γ/ml
Pseudomonas aeruginosa = assay: disc-plate agar diffusion, antibacterial spectrum; assay type: cell-based; conditions: 192 μg/ml, 25 °C, 7 mm = no zone, read-out: Inhibition Zone Diameter
Serratia marcescens = assay: disc-plate agar diffusion, antibacterial spectrum; assay type: cell-based; conditions: 192 μg/ml, 25 °C, 7 mm = no zone, read-out: Inhibition Zone Diameter
Staphylococcus aureus = assay: disc-plate agar diffusion, antibacterial spectrum; assay type: cell-based; conditions: 192 μg/ml, 25 °C, 7 mm = no zone, read-out: Inhibition Zone Diameter
Sarcina lutea = assay: disc-plate agar diffusion, antibacterial spectrum; assay type: cell-based; conditions: Micrococcus luteus; 192 μg/ml; 25 °C; 7 mm = no zone; read-out: Inhibition Zone Diameter
[11] = tested on: Staphylococcus aureus (Streptomycin-Streptothricin-resistant); assay: disc-plate agar diffusion, antibacterial spectrum; assay type: cell-based; conditions: read-out: Inhibition Zone Diameter
Streptococcus faecalis = assay: disc-plate agar diffusion, antibacterial spectrum; assay type: cell-based; conditions: Enterococcus faecalis; 192 μg/ml; 37 °C; 7 mm = no zone; read-out: Inhibition Zone Diameter
Alcaligenes faecalis = assay: disc-plate agar diffusion, antibacterial spectrum; assay type: cell-based; conditions: 192 μg/ml, 37 °C, 7 mm = no zone, read-out: Inhibition Zone Diameter
Brucella bronchiseptica = assay: microbe, parasite or virus in culture; assay type: cell-based; conditions: Bordetella bronchiseptica, read-out: Inhibition Zone Diameter
Vibrio percolans = assay: disc-plate agar diffusion, antibacterial spectrum; assay type: cell-based; conditions: Comamonas terrigena; 192 μg/ml; 27 °C; 7 mm = no zone; read-out: Inhibition Zone Diameter
[12] = tested on: Escherichia coli, Streptomycin-resistant; assay: cross-resistance, disc-plate agar diffusion; assay type: cell-based; conditions: read-out: Inhibition Zone Diameter
[13] = tested on: Escherichia coli, Pleocidin-resistant; assay: cross-resistance, disc-plate agar diffusion; assay type: cell-based; conditions: read-out: Inhibition Zone Diameter
[14] = tested on: Escherichia coli, Chloramphenicol-resistant; assay: cross-resistance, disc-plate agar diffusion; assay type: cell-based; conditions: read-out: Inhibition Zone Diameter
[15] = tested on: Escherichia coli, Chlortetracycline-resistant; assay: microbe, parasite or virus in culture; assay type: cell-based; conditions: read-out: Inhibition Zone Diameter
[16] = tested on: Escherichia coli, Neomycin-resistant; assay: cross-resistance, disc-plate agar diffusion; assay type: cell-based; conditions: read-out: Inhibition Zone Diameter
[17] = tested on: Escherichia coli, Viomycin-resistant; assay: cross-resistance, disc-plate agar diffusion; assay type: cell-based; conditions: read-out: Inhibition Zone Diameter
[18] = tested on: Escherichia coli, Polymyxin-resistant; assay: cross-resistance, disc-plate agar diffusion; assay type: cell-based; conditions: read-out: Inhibition Zone Diameter
[19] = tested on: Escherichia coli, Grisein-resistant; assay: cross-resistance, disc-plate agar diffusion; assay type: cell-based; conditions: read-out: Inhibition Zone Diameter
Escherichia coli W-MB-60 [20] = assay: special effects spectrum, disc-plate agar diffusion; assay type: cell-based; conditions: WMB60, 192 μg/ml, read-out: Inhibition Zone Diameter
[21] = relative biopotency of blocked intermediate; conditions: starting material: disodium salt of 842A

COC(=Cc1ccc(OS(=O)(=O)O)cc1)C(=O)OCC1=C(C(=O)O)N2C(=O)[C@](NC(=O)CCC[C@@H](N)C(=O)O)(OC)[C@H]2SC1 [Ic, 7β-(D-5-amino-5-carboxyvaleramido)-3-(α-methoxy-p-sulfooxycinnamoyloxymethyl)-7-methoxy-3-cephem-4-carboxylic acid]
toxicity [1]: low order of toxicity in mice
protection against infection, oral [2]: protects against infections due to Proteus vulgaris
in vivo activity / protection spectrum [2]: when administered intraperitoneally it is effective against a variety of gram-negative and gram-positive infections
resistance to enzymatic degradation / inactivation ([3]; listed as 7β-(D-5-amino-5-carboxyvaleramido)-3-(α-methyoxy-p-sulfooxycinnamoyloxymethyl)-7): greater resistance to cephalosporinases than cephalothin; also recorded: more resistant to enzymatic degradation than cephalosporin C
bactericidal action (bacteria): bactericidal

CO[C@@]1(NC(=O)CCC[C@@H](N)C(=O)O)C(=O)N2C(C(=O)O)=C(COC(N)=O)CS[C@@H]21 [Example 842A]
percent inactivation (Escherichia coli 236): 38%
percent inactivation (Proteus mirabilis 241): 5%
percent inactivation (Proteus morganii 251): 80%
percent inactivation (Proteus morganii 356): 69%
appearance in blood / excretion ([4]; mouse): rapidly excreted in the urine
appearance in blood / excretion ([4]; mouse, listed as Antibiotic 842A): appears rapidly in the blood
dose excreted at 4 h ([4]; mouse, urine, sc, within four hours after administration, read-out: eliminated/recovered in the urine): ~79%
eliminated/recovered in the urine ([4]; within four hours after administration, 240 min, listed as Antibiotic 842A, 240 min): approximately 80%
apparent isoelectric point ([5]; amphoteric compound): ~3.5 pH
stability [5]: stable
stability ([5]; listed as Antibiotic 842A): relatively stable
protection against infection, oral [2]: protects against infections due to Paracolobactrum arizonae 3270, Proteus vulgaris 1810, and Salmonella schottmuelleri 3010
in vivo activity / protection spectrum ([2]; listed as Antibiotic 842A): protects against infection with three species of Proteus, two of Salmonella, one strain of Escherichia coli, two of Klebsiella and also against Paracolobactrum arizonae, Aerobacter aerogenes, Pasteurella multocida and Diplococcus pneumoniae 2400; also recorded: effectiveness against the following gram-negative bacteria: Escherichia coli, Proteus vulgaris, Proteus mirabilis, Proteus morganii, Salmonella schottmuelleri, Klebsiella pneumoniae AD, Klebsiella pneumoniae B, and Paracolobactrum arizonae
resistance to enzymatic degradation / inactivation ([3]; listed as Antibiotic 842A): greater resistance to cephalosporinases; also recorded: more resistant to enzymatic degradation than cephalosporin C; also recorded: more stable than the latter against certain microorganisms; also recorded: more resistant than cephalosporin C to inactivation by A. faecalis, A. viscosus, Escherichia coli 236, Proteus morganii 251, Proteus morganii 236 and Proteus mirabilis 241
activity against Salmonella (gram-negative bacteria): exhibits activity against Salmonella schottmuelleri 3010, S. gallinarum and S. typhosa
growth inhibition (gram-negative bacteria; in vitro, E. coli, P. vulgaris, A. faecalis, B. bronchiseptica, S. gallinarum, V. percolans, X. vesicatoria): inhibits the growth of the following gram-negative bacteria
growth inhibition (gram-positive bacteria): inhibits the growth of the following gram-positive bacteria
bactericidal action (bacteria): bactericidal
development of resistance (bacteria): resistance to it develops slowly
Percent Inactivation After Incubation With Washed Bacterial Cells [6]: 0%
Percent Inactivation After Incubation With Washed Bacterial Cells [7]: 54.4%

CO[C@@]1(NC(=O)CCC[C@@H](N)C(=O)O)C(=O)N2C(C(=O)O)=C(CN=[N+]=[N-])CS[C@@H]21 [7β-(D-5-amino-5-carboxyvaleramido)-3-(azidomethyl)-7-methoxy-3-cephem-4-carboxylic acid]
zone of inhibition at 100 µg/mL (Escherichia coli W-MB-60 [8]): 21 mm
zone of inhibition at 100 µg/mL [9]: 20 mm
bioactivity [10]: possessed bioactivity against several strains of bacteria
zone of inhibition at 5 µg/mL (Vibrio percolans MB-1272): 16 mm

CO[C@@]1(NC(=O)CCC[C@@H](N)C(=O)O)C(=O)N2C(C(=O)O)=C(COC(N)=O)CS[C@@H]21 [Sodium Salt]
zone of inhibition at 192 µg/mL (Pseudomonas aeruginosa): 7 mm
zone of inhibition at 192 µg/mL (Serratia marcescens): 7 mm
zone of inhibition at 192 µg/mL (Staphylococcus aureus): 7 mm
zone of inhibition at 192 µg/mL (Sarcina lutea): 9 mm
zone of inhibition at 192 µg/mL [11]: 10 mm
zone of inhibition at 192 µg/mL (Streptococcus faecalis): 7 mm
zone of inhibition at 192 µg/mL (Alcaligenes faecalis): 7 mm
zone of inhibition at 192 µg/mL (Brucella bronchiseptica): 26 mm
zone of inhibition at 192 µg/mL (Vibrio percolans): 38 mm
zone of inhibition at 192 µg/mL [12]: 16 mm
zone of inhibition at 192 µg/mL [13]: 17 mm
zone of inhibition at 192 µg/mL [14]: 16 mm
zone of inhibition at 192 µg/mL [15]: 23 mm
zone of inhibition at 192 µg/mL [16]: 17 mm
zone of inhibition at 192 µg/mL [17]: 30 mm
zone of inhibition at 192 µg/mL [18]: 7 mm
zone of inhibition at 192 µg/mL [19]: 16 mm
zone of inhibition at 192 µg/mL (Escherichia coli W-MB-60 [20]; 0.1 M phosphate buffer pH 5, 25 °C): 15 mm
zone of inhibition at 192 µg/mL (Escherichia coli W-MB-60 [20]; 0.1 M phosphate buffer pH 7, 25 °C): 25 mm

CO[C@@]1(NC(=O)CCC[C@@H](NC(=O)OC(C)(C)C)C(=O)O)C(=O)N2C(C(=O)O)=C(COC(N)=O)CS[C@@H]21 [7β-(D-5-N-tertiary-butoxycarbonylamino-5-carboxyvaleramido)-3-(carbamoyloxymethyl)-7-methoxy-3-cephem-4-carboxylic acid]
biopotency relative to starting material [21]: one-tenth the biopotency of the starting material
